Assay results as given in patent US11174242B2, “Heteroaryl compounds and their use” (Minoryx Therapeutics S.L., priority 2016, dated 2021).
Changes are numbered by the printed parent chain.

What was measured:
[1] = molecular target: T1, β-glucocerebrosidase, p.L444P mutation (GM08760A fibroblasts) (Homo sapiens, UniProt P04062, L483P); assay: Enhancement of β-glucocerebrosidase activity measured in Gaucher disease fibroblasts (L444P); assay type: cell-based; settings: increase in enzyme activity vs non-treated cells, GBA fibroblasts bearing L444P
T1 construct: host or cells: human Gaucher patient fibroblasts GM08760A, homozygous L444P
T1 sequence (P04062 40-536 L483P): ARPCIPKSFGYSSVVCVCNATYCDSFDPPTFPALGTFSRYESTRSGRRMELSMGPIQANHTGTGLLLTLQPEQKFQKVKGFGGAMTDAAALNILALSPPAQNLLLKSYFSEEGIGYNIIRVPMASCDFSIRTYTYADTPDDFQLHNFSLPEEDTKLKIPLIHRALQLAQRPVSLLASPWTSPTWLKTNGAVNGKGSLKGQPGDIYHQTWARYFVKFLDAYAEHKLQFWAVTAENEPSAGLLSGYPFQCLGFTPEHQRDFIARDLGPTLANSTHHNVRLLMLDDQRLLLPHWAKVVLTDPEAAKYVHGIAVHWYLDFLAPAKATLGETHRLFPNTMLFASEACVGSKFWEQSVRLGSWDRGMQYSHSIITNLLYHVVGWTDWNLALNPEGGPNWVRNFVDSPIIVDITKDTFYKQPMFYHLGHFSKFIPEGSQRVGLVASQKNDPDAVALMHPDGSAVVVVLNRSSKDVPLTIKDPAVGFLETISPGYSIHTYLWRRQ
Protocol: Enhancement of β-Glucocerebrosidase Activity Measured in Gaucher Disease Fibroblasts Materials
Human fibroblasts from a patient with Gaucher disease homozygous for p.L444P mutation (GM08760A) were purchased from Coriell Institute for Medical Research (Camden, N.J., USA).
(§1) Fibroblasts were seeded at 5×10^3 cells per well in 96-well cell culture plates (Corning, N.Y., USA) in Dulbecco's Modified Eagle's Media (DMEM) supplemented with 10% of fetal bovine serum (FBS), 1% penicillin/streptomycin (P/S) (Thermo Fisher Scientific, Waltham, Mass., USA) and grown at 37° C., 5% CO2 overnight for cell attachment. Subsequently, cells were incubated in the absence or presence of the compounds at the desired concentration for 4 days. After incubation, cells were washed twice with phosphate-buffered saline (PBS) and enzyme activity assay was performed.
(§2) β-glucocerebrosidase activity in intact cultured cells was measured by using 4-methylumbelliferyl-β-D-glucopyranoside substrate (Apollo Scientific, UK). Briefly, cells were incubated with 4-MU-β-D-glucopyranoside in 0.1 M acetate buffer pH=4 at 37° C. for 1 hour. […] The liberated 4-MU was measured on a GloMax Discover plate reader (Promega, Madison, Wis., USA) with and excitation at 340 nm and emission at 460 nm. Enzyme activities were expressed in treated cells as X-fold increase in comparison with non-treated cells (X=1 represents no enhancement).
The capacity of the compounds of the disclosure to produce an increase in enzyme activity in GBA fibroblasts bearing L444P at concentrations between 6 and 50 μM is denoted as follows:
(§3) The following compounds listed in Table 2 were purchased (from Enamine, Princeton, Asinex, Vistas-M, and OSSK_541352) and tested in the assay as described above.

[2] = molecular target: T2, β-glucocerebrosidase Wild Type (WT) (Homo sapiens, UniProt P04062); assay: β-glucocerebrosidase activity enhancement, Wild Type (WT); assay type: cell-based; settings: increase in enzyme activity vs non-treated cells; for Activity WT: commercially available compounds
T2 construct: endogenous in cells
T2 sequence (P04062 40-536): T1 sequence (P04062 40-536 L483P) with P444L
Protocol: as §1, §2, §3

[3] = commercially available compounds, 6-50 μM, 4 days
[4] = concentrations between 6 and 50 μM, 4 days incubation

Row | Compound | Activity L444P [1, 3] | Activity WT [2] | Activity L444P [1, 4] | Activity Wild Type (WT) [2]
1 | COc1cccc(N2CCN(Cc3nc(N)nc(NCc4ccccc4)n3)CC2)c1 [N2-benzyl-6-((4-(3-methoxyphenyl)piperazin-1-yl)methyl)-1,3,5-triazine-2,4-diamine] | C (Increase in comparison with non-treated of 1.2-1.7 fold is shown as C) | C (Increase in comparison with non-treated of 1.2-1.7 fold is shown as C) |  | 
2 | Cc1ccc(Nc2cc(CN3CCCc4ccccc43)nc(N)n2)cc1 [Example 14, 6-((3,4-Dihydroquinolin-1(2H)-yl)methyl)-N^4-(p-tolyl)pyrimidine-2,4-diamine] |  |  | C (Increase in comparison with non-treated of 1.2-1.7 fold is shown as C) | B (Increase in comparison with non-treated of >1.7-2.0 fold is shown as B)
3 | COc1cccc(Nc2cc(CN3CCCC3c3ccccc3)nc(N)n2)c1 (stereo not shown) [Example 50] |  |  | C (Increase in comparison with non-treated of 1.2-1.7 fold is shown as C) | C (Increase in comparison with non-treated of 1.2-1.7 fold is shown as C)
4 | COc1cccc(Nc2cc(CN(C)Cc3ccc(F)cc3)nc(N)n2)c1 [Example 45, 6-(((4-Fluorobenzyl)(methyl)amino)methyl)-N^4-(3-methoxyphenyl)pyrimidine-2,4-diamine] |  |  | C (Increase in comparison with non-treated of 1.2-1.7 fold is shown as C) | C (Increase in comparison with non-treated of 1.2-1.7 fold is shown as C)
5 | CN(Cc1ccccc1)Cc1nc(N)nc(Nc2ccc(Br)cc2)n1 [Example 5, 6-((Benzyl(methyl)amino)methyl)-N^2-(4-bromophenyl)-1,3,5-triazine-2,4-diamine] |  |  | C (Increase in comparison with non-treated of 1.2-1.7 fold is shown as C) | C (Increase in comparison with non-treated of 1.2-1.7 fold is shown as C)
6 | COc1cccc(Nc2nc(N)nc(CN(C)Cc3ccccc3)n2)c1 [Example 9] |  |  | C (Increase in comparison with non-treated of 1.2-1.7 fold is shown as C) | B (Increase in comparison with non-treated of >1.7-2.0 fold is shown as B)
7 | Cc1ccc(Nc2nc(N)nc(CN(C)c3ccc4ccccc4c3)n2)cc1 [6-((methyl(naphthalen-2-yl)amino)methyl)-N2-(p-tolyl)-1,3,5-triazine-2,4-diamine] | A (Increase in comparison with non-treated of >2.0 fold is shown as A) | C (Increase in comparison with non-treated of 1.2-1.7 fold is shown as C) |  | 
8 | CN(Cc1ccccc1)Cc1cc(Nc2cccc(Cl)c2)nc(N)n1 [Example 20] |  |  | B (Increase in comparison with non-treated of >1.7-2.0 fold is shown as B) | B (Increase in comparison with non-treated of >1.7-2.0 fold is shown as B)
9 | CCN(Cc1ccccc1)C(C)c1nc(N)nc(Nc2ccccc2)n1 (stereo not shown) [6-(1-(benzyl(ethyl)amino)ethyl)-N2-phenyl-1,3,5-triazine-2,4-diamine] | B (Increase in comparison with non-treated of >1.7-2.0 fold is shown as B) | B (Increase in comparison with non-treated of >1.7-2.0 fold is shown as B) |  | 
10 | Cc1cccc(Nc2cc(CN(C)Cc3ccccc3)nc(N)n2)c1 [Example 16] |  |  | B (Increase in comparison with non-treated of >1.7-2.0 fold is shown as B) | A (Increase in comparison with non-treated of >2.0 fold is shown as A)
11 | Nc1nc(CN2Cc3ccccc3C2)nc(Nc2ccc(F)cc2)n1 [N2-(4-fluorophenyl)-6-(isoindolin-2-ylmethyl)-1,3,5-triazine-2,4-diamine] | B (Increase in comparison with non-treated of >1.7-2.0 fold is shown as B) | C (Increase in comparison with non-treated of 1.2-1.7 fold is shown as C) |  | 
12 | CN(Cc1ccccc1)Cc1cc(Nc2ccc3ccncc3c2)nc(N)n1 [Example 30, 6-((Benzyl(methyl)amino)methyl)-N^4-(isoquinolin-7-yl)pyrimidine-2,4-diamine] |  |  | A (Increase in comparison with non-treated of >2.0 fold is shown as A) | B (Increase in comparison with non-treated of >1.7-2.0 fold is shown as B)
13 | COc1ccc(Nc2cc(CN(C)Cc3ccccc3)nc(N)n2)cc1 [Example 18, 6-((benzyl(methyl)amino)methyl)-N^4-(4-methoxyphenyl)pyrimidine-2,4-diamine] |  |  | B (Increase in comparison with non-treated of >1.7-2.0 fold is shown as B) | B (Increase in comparison with non-treated of >1.7-2.0 fold is shown as B)
14 | CN(Cc1ccccc1)Cc1cc(Nc2ccc(C#N)cc2)nc(N)n1 [Example 19, 4-(2-amino-6-((benzyl(methyl)amino)methyl)pyrimidin-4-ylamino)benzonitrile] |  |  | B (Increase in comparison with non-treated of >1.7-2.0 fold is shown as B) | B (Increase in comparison with non-treated of >1.7-2.0 fold is shown as B)
15 | COc1ccccc1Nc1nc(N)nc(CN(C)Cc2ccccc2)n1 [Example 10, 6-((Benzyl (methyl)amino)methyl)-N^2-(2-methoxyphenyl)-1,3,5-triazine-2,4-diamine] |  |  | C (Increase in comparison with non-treated of 1.2-1.7 fold is shown as C) | B (Increase in comparison with non-treated of >1.7-2.0 fold is shown as B)
16 | CN(Cc1ccccc1)Cc1cc(Nc2ccc3cnccc3c2)nc(N)n1 [Example 31, 6-((Benzyl(methyl)amino)methyl)-N^4-(isoquinolin-6-yl)pyrimidine-2,4-diamine] |  |  |  | A (Increase in comparison with non-treated of >2.0 fold is shown as A)
17 | Cc1ccc(CN(C)Cc2cc(Nc3ccc(C)cc3)nc(N)n2)cc1 [Example 34, 6-((Methyl(4-methylbenzyl)amino)methyl)-N^4-p-tolylpyrimidine-2,4-diamine] |  |  | B (Increase in comparison with non-treated of >1.7-2.0 fold is shown as B) | 
18 | Cc1ccc(Nc2cc(CN(C)Cc3cccc(C#N)c3)nc(N)n2)cc1 [Example 55, 3-((((2-Amino-6-(p-tolylamino)pyrimidin-4-yl)methyl)(methyl)amino)methyl)benzonitrile] |  |  | B (Increase in comparison with non-treated of >1.7-2.0 fold is shown as B) | 
19 | CN(Cc1cccc(F)c1)Cc1nc(N)nc(Nc2ccc(Cl)cc2)n1 [N2-(4-chlorophenyl)-6-(((3-fluorobenzyl)(methyl)amino)methyl)-1,3,5-triazine-2,4-diamine] | C (Increase in comparison with non-treated of 1.2-1.7 fold is shown as C) |  |  | 
20 | COc1ccccc1Nc1cc(N)nc(CN(C)Cc2ccccc2)n1 [Example 63, 2-((Benzyl(methyl)amino)methyl)-N^4-(2-methoxyphenyl)pyrimidine-4,6-diamine] |  |  | C (Increase in comparison with non-treated of 1.2-1.7 fold is shown as C) | 
21 | COc1ccccc1Nc1cc(CN(C)Cc2ccccc2)nc(N)n1 [Example 15, 6-((benzyl(methyl)amino)methyl)-N^4-(2-methoxyphenyl)pyrimidine-2,4-diamine] |  |  | B (Increase in comparison with non-treated of >1.7-2.0 fold is shown as B) | 
22 | Nc1nc(CN(Cc2ccc(F)cc2)C2CC2)nc(Nc2ccc(F)cc2)n1 [6-((cyclopropyl(4-fluorobenzyl)amino)methyl)-N2-(4-fluorophenyl)-1,3,5-triazine-2,4-diamine] | C (Increase in comparison with non-treated of 1.2-1.7 fold is shown as C) |  |  | 
